One experiment deals with N. gonorrhoeae WHO G. The experiment is described as follows: Liquid broth MIC in Fastidious broth. The following applies: Neisseria gonorrhoeae, read-out: Minimum Inhibitory Concentration, WHO G.
For the next experiment, the system named is N. gonorrhoeae WHO Z. In words: Liquid broth MIC in Fastidious broth. Conditions: Neisseria gonorrhoeae, read-out: Minimum Inhibitory Concentration, WHO Z.
A further experiment relates to P. aeruginosa ATCC 35151. In words: microbe, parasite or virus in culture. It counts as cell-based. Conditions: Pseudomonas aeruginosa, ATCC35151, read-out: Minimum inhibitory concentration, P. aeruginosa ATCC 35151.
For a further experiment, the system named is A. baumannii CDC-0083. In words: microbe, parasite or virus in culture. It counts as cell-based. The following applies: Acinetobacter baumannii, CDC0083, read-out: MIC, A. baumannii CDC-0083.
The test system of experiment [1] is N. gonorrhoeae ATCC 49226. The experiment is described as follows: Liquid broth MIC in Fastidious broth. Conditions: Neisseria gonorrhoeae, ATCC49226, read-out: Minimum Inhibitory Concentration, ATCC 49226.
Experimental: Additional antibacterial testing of the series was performed in 8 reference strains of N. gonorrhoeae (ATCC 49226, FA1090, MS 11, WHO G, WHO L, WHO M, WHO K, WHO X, WHO Z, WHO Q, CDC-0197). ATCC 49226, FA1090, MS11, WHO G, WHO L, and WHO M produce wild type or wild-type like PBP2. WHO K, WHO X, WHO Z, WHO Q, and CDC-0197 produce mosaic PBP2. Liquid broth-based assays were used for antibacterial testing of PBP inhibitors in Neisseria gonorrhoeae. Briefly, cryo-preserved bacterial cultures of clinical strains were streaked for isolation on Chocolate Agar (72 g/L (2×) GC Agar Base (BD #228950) and 2% (2×) Hemoglobin was autoclaved at 121° C. for 20 minutes to sterilize. Once cooled to ˜50° C. the 2×GC Agar Base and 2× Hemoglobin solutions are combined and 1% IsoVitaleX Enrichment (BD #211876) was added to the solution). Strains were incubated at 36° C. and 5% CO2 to allow growth of colonies, 24 hours before inoculum preparation. 2-fold serial dilutions of test compounds were conducted in a 96 well plate with a final volume of 75 μL per well at 2-fold the final desired concentration in Fastidious broth (Remel #R07664). For preparation of assay inoculum, a direct suspension was prepared by aseptically swabbing 10-15 colonies from agar plates into culture tubes containing 2 mL of fresh sterile saline. After the dilution plates were set up, direct suspensions were then diluted in a cuvette containing sterile saline and the optical density was measured at 600 nm. Inocula were diluted such that 75 μL of this culture in Fastidious broth results in a starting bacterial concentration of 5×10^5 CFU/mL when added to the dilution plates. The plates were incubated for ˜24 hours at 36° C. and 5% CO2.
The test system of the next experiment is N. gonorrhoeae WHO X. The experiment is described as follows: Liquid broth MIC in Fastidious broth. The following applies: Neisseria gonorrhoeae, read-out: Minimum Inhibitory Concentration, WHO X.
Another experiment has as its system P. aeruginosa CDC-0110. In words: microbe, parasite or virus in culture. It counts as cell-based. Conditions: Pseudomonas aeruginosa, CDC0110, read-out: Minimum inhibitory concentration, P. aeruginosa CDC-0110.
The subject of experiment [2] is B. humptydooensis ATCC BAA-2767. In words: microbe, parasite or virus in culture. It is filed as cell-based. The following applies: Burkholderia humptydooensis, ATCCBAA2767, read-out: Minimum inhibitory concentration (MIC), B. humptydooensis ATCC BAA-2767.
Experiment [3] has as its system P. aeruginosa (ΔmexAB-oprM). In words: Broth microdilution MIC in iron-depleted CAMHB (IDM). It counts as cell-based. The following applies: Pseudomonas aeruginosa; iron-depleted CAMHB (IDM); […]; read-out: Minimum inhibitory concentration, P. aeruginosa ΔmexAB-oprM.

Converted amounts (≈) assume the structure as drawn. Bounds are passed on as bounds.

As for `O=C(NCCCN1CCN(C(=O)NC(C(=O)N[C@H]2Cc3ccc(F)c(C(=O)O)c3OB2O)c2cc(F)c(O)c(O)c2Cl)C1=O)c1ccc(O)cc1` (stereo partly drawn) [Example 280, (3R)-3-(2-(2-chloro-5-fluoro-3,4-dihydroxyphenyl)-2-(3-(3-(4-hydroxybenzamido)propyl)-2-oxoimidazolidine-1-carboxamido)acetamido)-7-fluoro-2-hydroxy-3,4-dihydro-2H-benzo[e][1,2]oxaborinine-8-carboxylic acid], the MIC in the experiment on N. gonorrhoeae WHO G was 16 to 32 µg/mL (≈ 21.9 to 43.7 µM); in the experiment with N. gonorrhoeae WHO Z, 16 to 32 µg/mL (≈ 21.9 to 43.7 µM); in the experiment on P. aeruginosa ATCC 35151 it was < 1 µg/mL; in the experiment on A. baumannii CDC-0083, 2 to 4 µg/mL (≈ 2.73 to 5.47 µM); in experiment [1], 16 to 32 µg/mL (≈ 21.9 to 43.7 µM); in the experiment with N. gonorrhoeae WHO X, > 64 µg/mL. The MIC in the experiment with P. aeruginosa CDC-0110 is 2 to 4 µg/mL (≈ 2.73 to 5.47 µM); in experiment [2] it was 2 to 4 µg/mL (≈ 2.73 to 5.47 µM); in experiment [3], < 1 µg/mL.
On to `O=C(NCCCN1CCN(C(=O)NC(C(=O)N[C@H]2Cc3ccc(F)c(C(=O)O)c3OB2O)c2cc(F)c(O)c(O)c2Cl)C1=O)c1cccnc1` (stereo partly drawn) [Example 281, (3R)-3-(2-(2-chloro-5-fluoro-3,4-dihydroxyphenyl)-2-(3-(3-(nicotinamido)propyl)-2-oxoimidazolidine-1-carboxamido)acetamido)-7-fluoro-2-hydroxy-3,4-dihydro-2H-benzo[e][1,2]oxaborinine-8-carboxylic acid], for which the MIC in the experiment with N. gonorrhoeae WHO G is 16 to 32 µg/mL (≈ 22.3 to 44.6 µM); in the experiment with N. gonorrhoeae WHO Z, 16 to 32 µg/mL (≈ 22.3 to 44.6 µM); in the experiment with P. aeruginosa ATCC 35151, < 1 µg/mL; in the experiment on A. baumannii CDC-0083 it was 8 to 16 µg/mL (≈ 11.2 to 22.3 µM); in experiment [1], > 64 µg/mL; with N. gonorrhoeae WHO X, > 64 µg/mL. Moreover, the figures for the MIC (in the experiment on P. aeruginosa CDC-0110; in experiment [2]; in [3]) were 2 to 4 µg/mL (≈ 2.79 to 5.58 µM), < 1 µg/mL and < 1 µg/mL, respectively.
Turning to `O=C(NCCCN1CCN(C(=O)N[C@H](C(=O)N[C@H]2Cc3ccc(F)c(C(=O)O)c3OB2O)c2cc(F)c(O)c(O)c2Cl)C1=O)Nc1ccc(O)cc1` [Example 283, (R)-3-((S)-2-(2-chloro-5-fluoro-3,4-dihydroxyphenyl)-2-(3-(3-(3-(4-hydroxyphenyl)ureido)propyl)-2-oxoimidazolidine-1-carboxamido)acetamido)-7-fluoro-2-hydroxy-3,4-dihydro-2H-benzo[e][1,2]oxaborinine-8-carboxylic acid], the MIC was > 64 µg/mL in the experiment on N. gonorrhoeae WHO G; > 64 µg/mL with N. gonorrhoeae WHO Z; 2 to 4 µg/mL (≈ 2.68 to 5.36 µM) in the experiment with P. aeruginosa ATCC 35151; > 128 µg/mL in the experiment on A. baumannii CDC-0083; > 64 µg/mL in [1]; > 64 µg/mL in the experiment on N. gonorrhoeae WHO X. Moreover, the MIC (in the experiment on P. aeruginosa CDC-0110; in experiment [2]; in experiment [3]) was > 128 µg/mL each time.
In the case of `O=C(NCCCN1CCN(C(=O)N[C@@H](C(=O)N[C@H]2Cc3ccc(F)c(C(=O)O)c3OB2O)c2cc(F)c(O)c(O)c2Cl)C1=O)Nc1ccc(O)cc1` [Example 284, (R)-3-((R)-2-(2-chloro-5-fluoro-3,4-dihydroxyphenyl)-2-(3-(3-(3-(4-hydroxyphenyl)ureido)propyl)-2-oxoimidazolidine-1-carboxamido)acetamido)-7-fluoro-2-hydroxy-3,4-dihydro-2H-benzo[e][1,2]oxaborinine-8-carboxylic acid], the MIC in the experiment on N. gonorrhoeae WHO G is 4 to 8 µg/mL (≈ 5.36 to 10.7 µM); with N. gonorrhoeae WHO Z it was 4 to 8 µg/mL (≈ 5.36 to 10.7 µM); in the experiment with P. aeruginosa ATCC 35151, < 1 µg/mL; in the experiment on A. baumannii CDC-0083, 2 to 4 µg/mL (≈ 2.68 to 5.36 µM); in experiment [1], 4 to 8 µg/mL (≈ 5.36 to 10.7 µM); in the experiment with N. gonorrhoeae WHO X, > 64 µg/mL. For the same molecule, the MIC (in the experiment with P. aeruginosa CDC-0110; in [2]; in experiment [3]) was < 1 µg/mL throughout.
In the case of `O=C(NCCCN1CCN(C(=O)NC(C(=O)N[C@H]2Cc3ccc(F)c(C(=O)O)c3OB2O)c2cc(F)c(O)c(O)c2Cl)C1=O)Nc1ccncc1` (stereo partly drawn) [Example 285, (3R)-3-(2-(2-chloro-5-fluoro-3,4-dihydroxyphenyl)-2-(2-oxo-3-(3-(3-(pyridin-4-yl)ureido)propyl)imidazolidine-1-carboxamido)acetamido)-7-fluoro-2-hydroxy-3,4-dihydro-2H-benzo[e][1,2]oxaborinine-8-carboxylic acid], the MIC with N. gonorrhoeae WHO G is > 64 µg/mL; in the experiment on N. gonorrhoeae WHO Z it was > 64 µg/mL; in the experiment with P. aeruginosa ATCC 35151, < 1 µg/mL; in the experiment with A. baumannii CDC-0083 it was < 1 µg/mL; in experiment [1] it was > 64 µg/mL; in the experiment on N. gonorrhoeae WHO X, > 64 µg/mL. Besides, the results for the MIC (with P. aeruginosa CDC-0110; in experiment [2]; in experiment [3]) were 8 to 16 µg/mL (≈ 10.9 to 21.9 µM), 2 to 4 µg/mL (≈ 2.73 to 5.47 µM) and < 1 µg/mL, respectively.
As to `O=C(NCCS(=O)(=O)N1CCN(C(=O)N[C@H](C(=O)N[C@H]2Cc3ccc(F)c(C(=O)O)c3OB2O)c2cc(F)c(O)c(O)c2Cl)C1=O)c1ccc(O)cc1` [Example 286, (R)-3-((S)-2-(2-chloro-5-fluoro-3,4-dihydroxyphenyl)-2-(3-((2-(4-hydroxybenzamido)ethyl)sulfonyl)-2-oxoimidazolidine-1-carboxamido)acetamido)-7-fluoro-2-hydroxy-3,4-dihydro-2H-benzo[e][1,2]oxaborinine-8-carboxylic acid], the MIC with N. gonorrhoeae WHO G is > 64 µg/mL; with N. gonorrhoeae WHO Z it was > 64 µg/mL; with P. aeruginosa ATCC 35151, 8 to 16 µg/mL (≈ 10.2 to 20.5 µM); with A. baumannii CDC-0083, > 128 µg/mL; in experiment [1], > 64 µg/mL; in the experiment on N. gonorrhoeae WHO X it was > 64 µg/mL. In addition, the MIC (in the experiment with P. aeruginosa CDC-0110; in experiment [2]; in experiment [3]) was > 128 µg/mL each time.
For `O=C(NCCS(=O)(=O)N1CCN(C(=O)N[C@@H](C(=O)N[C@H]2Cc3ccc(F)c(C(=O)O)c3OB2O)c2cc(F)c(O)c(O)c2Cl)C1=O)c1ccc(O)cc1` [Example 287, (R)-3-((R)-2-(2-chloro-5-fluoro-3,4-dihydroxyphenyl)-2-(3-((2-(4-hydroxybenzamido)ethyl)sulfonyl)-2-oxoimidazolidine-1-carboxamido)acetamido)-7-fluoro-2-hydroxy-3,4-dihydro-2H-benzo[e][1,2]oxaborinine-8-carboxylic acid], the MIC was 4 to 8 µg/mL (≈ 5.12 to 10.2 µM) in the experiment with N. gonorrhoeae WHO G; 4 to 8 µg/mL (≈ 5.12 to 10.2 µM) with N. gonorrhoeae WHO Z; < 1 µg/mL with P. aeruginosa ATCC 35151; < 1 µg/mL in the experiment on A. baumannii CDC-0083; 4 to 8 µg/mL (≈ 5.12 to 10.2 µM) in experiment [1]; > 64 µg/mL with N. gonorrhoeae WHO X. Besides, the MIC (in the experiment on P. aeruginosa CDC-0110; in experiment [2]; in [3]) was < 1 µg/mL in each case.
Regarding `O=C(NCCS(=O)(=O)N1CCN(C(=O)NC(C(=O)N[C@H]2Cc3ccc(F)c(C(=O)O)c3OB2O)c2cc(F)c(O)c(O)c2Cl)C1=O)c1ccncc1` (stereo partly drawn) [Example 288, (3R)-3-(2-(2-chloro-5-fluoro-3,4-dihydroxyphenyl)-2-(3-((2-(isonicotinamido)ethyl)sulfonyl)-2-oxoimidazolidine-1-carboxamido)acetamido)-7-fluoro-2-hydroxy-3,4-dihydro-2H-benzo[e][1,2]oxaborinine-8-carboxylic acid], the MIC is 4 to 8 µg/mL (≈ 5.22 to 10.4 µM) with N. gonorrhoeae WHO G; 4 to 8 µg/mL (≈ 5.22 to 10.4 µM) in the experiment on N. gonorrhoeae WHO Z; < 1 µg/mL in the experiment on P. aeruginosa ATCC 35151; < 1 µg/mL in the experiment on A. baumannii CDC-0083; 16 to 32 µg/mL (≈ 20.9 to 41.7 µM) in [1]; > 64 µg/mL in the experiment on N. gonorrhoeae WHO X. Also, the MIC with P. aeruginosa CDC-0110 is 2 to 4 µg/mL (≈ 2.61 to 5.22 µM); in experiment [2], 2 to 4 µg/mL (≈ 2.61 to 5.22 µM); in experiment [3] it was < 1 µg/mL.
In the case of `O=C(NCCS(=O)(=O)N1CCN(C(=O)NC(C(=O)N[C@H]2Cc3ccc(F)c(C(=O)O)c3OB2O)c2cc(F)c(O)c(O)c2Cl)C1=O)Nc1ccc(O)cc1` (stereo partly drawn) [Example 289, (3R)-3-(2-(2-chloro-5-fluoro-3,4-dihydroxyphenyl)-2-(3-((2-(3-(4-hydroxyphenyl)ureido)ethyl)sulfonyl)-2-oxoimidazolidine-1-carboxamido)acetamido)-7-fluoro-2-hydroxy-3,4-dihydro-2H-benzo[e][1,2]oxaborinine-8-carboxylic acid], the MIC in the experiment on N. gonorrhoeae WHO G was 4 to 8 µg/mL (≈ 5.02 to 10 µM); in the experiment with N. gonorrhoeae WHO Z it was 4 to 8 µg/mL (≈ 5.02 to 10 µM); in the experiment on P. aeruginosa ATCC 35151 it was < 1 µg/mL; in the experiment on A. baumannii CDC-0083, < 1 µg/mL; in experiment [1], 16 to 32 µg/mL (≈ 20.1 to 40.2 µM); in the experiment with N. gonorrhoeae WHO X, > 64 µg/mL. In addition, the MIC in the experiment with P. aeruginosa CDC-0110 was 2 to 4 µg/mL (≈ 2.51 to 5.02 µM); in experiment [2], 2 to 4 µg/mL (≈ 2.51 to 5.02 µM); in experiment [3], < 1 µg/mL.
For the molecule `O=C(NCCS(=O)(=O)N1CCN(C(=O)N[C@@H](C(=O)N[C@H]2Cc3ccc(F)c(C(=O)O)c3OB2O)c2cc(F)c(O)c(O)c2Cl)C1=O)Nc1ccncc1` [Example 290, (R)-3-((R)-2-(2-chloro-5-fluoro-3,4-dihydroxyphenyl)-2-(2-oxo-3-((2-(3-(pyridin-4-yl)ureido)ethyl)sulfonyl)imidazolidine-1-carboxamido)acetamido)-7-fluoro-2-hydroxy-3,4-dihydro-2H-benzo[e][1,2]oxaborinine-8-carboxylic acid], the MIC with N. gonorrhoeae WHO G was 16 to 32 µg/mL (≈ 20.5 to 40.9 µM); with N. gonorrhoeae WHO Z, 4 to 8 µg/mL (≈ 5.12 to 10.2 µM); in the experiment on P. aeruginosa ATCC 35151, < 1 µg/mL; in the experiment on A. baumannii CDC-0083, < 1 µg/mL; in experiment [1], 16 to 32 µg/mL (≈ 20.5 to 40.9 µM); in the experiment on N. gonorrhoeae WHO X, > 64 µg/mL. In addition, the MIC (in the experiment on P. aeruginosa CDC-0110; in experiment [2]; in [3]) was < 1 µg/mL in each case.

Source of the values: patent US20240270762A1, “PENICILLIN-BINDING PROTEIN INHIBITORS” (priority 2021, published 2024).
